Reference: US20250197409A1, “BIFUNCTIONAL COMPOUND AND PHARMACEUTICAL COMPOSITION COMPRISING THE BIFUNCTIONAL COMPOUND, AND METHOD FOR TREATING ANDROGEN RECEPTOR RELATED DISEASE BY USING THE SAME” (ANHORN MEDICINES CO., LTD., priority 2022, published 2025)
Like-named read-outs stand apart in the source and are kept apart here.

Biological target: T1, androgen receptor (Homo sapiens, UniProt P10275, T878A)
T1 construct: host or cells: LNCaP.FGC
Experiment: Androgen receptor degradation assay using Western blot analysis
Type: cell-based
Protocol: Cells not treated with any of the above-mentioned compounds are used as a negative control.
The internal loading control GAPDH was detected using a mouse monoclonal antibody (1:5000) (GTX627408, GeneTex International Corp., HsinChu City, Taiwan R.O.C.) and a goat anti-mouse HRP-conjugated secondary antibody (1:5000 dilution) (C04001, Croyez Bioscience Co., Ltd., Taipei City, Taiwan R.O.C.).
AR remaining percentage was determined by the intensity difference of AR signals (each was normalized by the corresponding internal loading control GAPDH) between the protein samples from the untreated cells (100%) and those from the treated cells. “Cpd. #” indicates the compound number hereinabove.
In addition, several compounds were selected to prepare a treatment stock solutions at 100 nM in RPMI medium. The treatment stock solutions were separately serially diluted (10×) with RPMI medium for treating LNCaP.FGC cells seeded with 2×10^5 cells per well in 24-well tissue culture plates. A calibration curve was determined by the serial diluted samples for each compound, and the concentration needed for 50% AR degradation (AR DC50) for each compound was calculated.

[1] = LNCaP.FGC cells, serial 10x dilutions from 100 nM; read-out: AR DC50 (concentration needed for 50% AR degradation)
[2] = 24 h, read-out: Androgen Receptor Remaining (%), LNCaP.FGC cells, 100 nM, 24 hr, normalized to GAPDH, untreated cells = 100%
[3] = read-out: AR DC50 (concentration needed for 50% AR degradation); LNCaP.FGC cells, serial 10x dilutions from 100 nM
[4] = 24 h, LNCaP.FGC cells, 100 nM, 24 hr, normalized to GAPDH, untreated cells = 100%; read-out: Androgen Receptor Remaining (%)

T1 sequence (P10275 whole entry T878A): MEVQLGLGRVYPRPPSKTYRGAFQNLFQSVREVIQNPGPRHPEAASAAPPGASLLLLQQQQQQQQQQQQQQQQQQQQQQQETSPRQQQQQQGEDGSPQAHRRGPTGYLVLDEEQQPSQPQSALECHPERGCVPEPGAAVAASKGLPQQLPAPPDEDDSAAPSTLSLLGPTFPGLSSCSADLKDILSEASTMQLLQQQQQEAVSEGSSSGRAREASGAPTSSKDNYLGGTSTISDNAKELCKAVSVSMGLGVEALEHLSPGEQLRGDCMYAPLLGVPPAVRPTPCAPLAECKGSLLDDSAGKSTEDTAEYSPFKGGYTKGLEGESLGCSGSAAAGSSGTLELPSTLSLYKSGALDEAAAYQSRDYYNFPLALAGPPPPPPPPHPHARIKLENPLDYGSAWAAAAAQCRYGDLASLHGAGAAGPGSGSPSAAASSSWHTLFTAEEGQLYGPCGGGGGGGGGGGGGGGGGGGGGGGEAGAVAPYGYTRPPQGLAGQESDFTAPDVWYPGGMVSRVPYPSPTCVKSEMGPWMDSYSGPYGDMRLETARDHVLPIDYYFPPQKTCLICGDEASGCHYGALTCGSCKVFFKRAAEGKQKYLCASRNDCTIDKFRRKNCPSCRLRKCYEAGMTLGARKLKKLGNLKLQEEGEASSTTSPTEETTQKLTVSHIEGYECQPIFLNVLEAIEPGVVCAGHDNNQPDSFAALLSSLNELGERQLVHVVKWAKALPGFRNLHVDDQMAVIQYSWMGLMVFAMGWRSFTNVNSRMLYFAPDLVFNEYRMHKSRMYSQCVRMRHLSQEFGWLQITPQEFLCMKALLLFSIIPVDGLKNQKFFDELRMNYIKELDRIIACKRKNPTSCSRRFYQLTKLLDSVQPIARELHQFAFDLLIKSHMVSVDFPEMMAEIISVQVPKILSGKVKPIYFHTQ
T1 sequence (Q96SW2 whole entry partner): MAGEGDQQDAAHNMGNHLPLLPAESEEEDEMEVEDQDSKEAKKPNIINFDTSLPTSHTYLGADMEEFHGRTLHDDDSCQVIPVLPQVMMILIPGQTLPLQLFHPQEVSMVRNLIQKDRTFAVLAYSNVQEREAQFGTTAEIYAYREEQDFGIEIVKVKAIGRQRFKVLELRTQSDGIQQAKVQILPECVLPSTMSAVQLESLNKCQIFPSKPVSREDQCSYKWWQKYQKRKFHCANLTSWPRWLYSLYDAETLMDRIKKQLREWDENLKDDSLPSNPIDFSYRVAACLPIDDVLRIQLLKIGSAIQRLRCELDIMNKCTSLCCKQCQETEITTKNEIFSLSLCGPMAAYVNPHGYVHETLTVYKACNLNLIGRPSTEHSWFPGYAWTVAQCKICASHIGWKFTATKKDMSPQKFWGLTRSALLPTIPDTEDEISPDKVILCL

| SMILES | DC50 [1] [nM] | remaining activity at 0.1 µM [2] [%] | DC50 [3] [nM] | remaining activity at 0.1 µM [4] [%] |
| --- | --- | --- | --- | --- |
| Cn1c2c(c3ccc(OC4CCN(CC5CCN(c6ccc(C(=O)N[C@H]7C(C)(C)[C@@H](Oc8ccc(C#N)c(Cl)c8)C7(C)C)cn6)CC5)CC4)cc31)C(=O)N(C1CCC(=O)NC1=O)C2=O (some centres unmarked) [Compound 222] | 10 to 25 |  |  |  |
| CCn1c2c(c3ccc(OCCN4CCC5(C4)CN(c4ccc(C(=O)N[C@H]6CC[C@H](Oc7ccc(C#N)c(Cl)c7)CC6)nn4)C5)cc31)C(=O)N(C1CCC(=O)NC1=O)C2=O (some centres unmarked) [Compound 161] |  | 31 | 10 to 25 |  |
| Cn1c2c(c3ccc(OCCCCOC4CCN(c5ccc(C(=O)N[C@H]6CC[C@H](N(C)c7ccc(C#N)c(Cl)c7)CC6)nn5)CC4)cc31)C(=O)N(C1CCC(=O)NC1=O)C2=O (some centres unmarked) [Compound 186] |  |  | 10 to 25 |  |
| CCn1c2c(c3ccc(OCC(=O)N4CCN(c5ccc(C(=O)N[C@H]6CC[C@H](N(C)c7ccc(C#N)c(Cl)c7)CC6)nn5)CC4)cc31)C(=O)N(C1CCC(=O)NC1=O)C2=O (some centres unmarked) [Compound 125] |  | 57 |  |  |
| CCn1c2c(c3ccc(OCCN4CCC(c5ccc(C(=O)N[C@H]6CC[C@H](Oc7ccc(C#N)c(Cl)c7)CC6)nn5)CC4)cc31)C(=O)N(C1CCC(=O)NC1=O)C2=O (some centres unmarked) [Compound 206] |  |  | 10 to 25 |  |
| CCn1c2c(c3ccc(OCCCN4CCN(c5ccc(C(=O)N[C@H]6CC[C@H](Oc7ccc(C#N)c(Cl)c7)CC6)nn5)CC4)cc31)C(=O)N(C1CCC(=O)NC1=O)C2=O (some centres unmarked) [Compound 205] |  |  | < 10 |  |
| CCn1c2c(c3ccc(NC(=O)CN4CCN(c5ccc(C(=O)N[C@H]6C(C)(C)[C@H](Oc7ccc(C#N)c(Cl)c7)C6(C)C)cn5)CC4)cc31)C(=O)N(C1CCC(=O)NC1=O)C2=O (some centres unmarked) [Compound 56] |  | 4 | 25 to 100 |  |
| CCn1c2c(c3ccc(OCCOC4CCN(c5ccc(C(=O)N[C@H]6CC[C@H](Oc7ccc(C#N)c(Cl)c7)CC6)nn5)CC4)cc31)C(=O)N(C1CCC(=O)NC1=O)C2=O (some centres unmarked) [Compound 153] |  | 109 | 10 to 25 |  |
| CCn1c2c(c3ccc(OCC(=O)N4CCN(c5ccc(C(=O)N[C@H]6CC[C@H](N(C)c7ccc(C#N)c(Cl)c7)CC6)nn5)CC4)cc31)C(=O)N(C1CCC(=O)N(CO)C1=O)C2=O (some centres unmarked) [Compound 124] |  | 57 |  |  |
| CCn1c2c(c3ccc(OCCN4CCC(C5CCN(c6ccc(C(=O)N[C@H]7CC[C@H](Oc8ccc(C#N)c(Cl)c8)CC7)nn6)CC5)CC4)cc31)C(=O)N(C1CCC(=O)NC1=O)C2=O (some centres unmarked) [Compound 158] |  | 13 | 10 to 25 |  |
| CCn1c2c(c3ccc(OCCCN4CCN(c5ccc(C(=O)N[C@H]6CC[C@H](Oc7ccc(C#N)c(Cl)c7)CC6)cn5)CC4)cc31)C(=O)N(C1CCC(=O)NC1=O)C2=O (some centres unmarked) [Compound 26] |  | 75 |  |  |
| Cn1c2c(c3cc(OCCN4CCN(c5ccc(C(=O)N[C@H]6C(C)(C)[C@H](Oc7ccc(C#N)c(Cl)c7)C6(C)C)nc5)CC4)ccc31)C(=O)N(C1CCC(=O)NC1=O)C2=O (some centres unmarked) [Compound 10] | 25 to 100 |  |  | 37 |
| CCn1c2c(c3ccc(OCCN4CC5(CCN(c6ccc(C(=O)N[C@H]7CC[C@H](Oc8ccc(C#N)c(Cl)c8)CC7)nn6)CC5)C4)cc31)C(=O)N(C1CCC(=O)NC1=O)C2=O (some centres unmarked) [Compound 80] |  | 22 | 10 to 25 |  |
| CCn1c2c(c3ccc(OCCCOC4CCN(c5ccc(C(=O)N[C@H]6CC[C@H](N(C)c7ccc(C#N)c(Cl)c7)CC6)nn5)CC4)cc31)C(=O)N(C1CCC(=O)NC1=O)C2=O (some centres unmarked) [Compound 155] |  | 19 | 10 to 25 |  |
| CCn1c2c(c3ccc(OCCN4CCN(c5ccc(C(=O)N[C@H]6CC[C@H](Oc7ccc(C#N)c(Cl)c7)CC6)cn5)CC4)cc31)C(=O)N(C1CCC(=O)NC1=O)C2=O (some centres unmarked) [Compound 31] |  | 47 | 25 to 100 |  |
| CCn1c2c(c3ccc(OCCN4CCC5(CCN(c6ccc(C(=O)N[C@H]7CC[C@H](Oc8ccc(C#N)c(Cl)c8)CC7)nn6)C5)C4)cc31)C(=O)N(C1CCC(=O)NC1=O)C2=O (some centres unmarked) [Compound 133] |  | 1 | 10 to 25 |  |
| CCn1c2c(c3ccc(OCCN4CCN(c5ccc(C(=O)N[C@H]6CC[C@H](Oc7ccc(C#N)c(Cl)c7)CC6)nn5)[C@H](C)C4)cc31)C(=O)N(C1CCC(=O)NC1=O)C2=O (some centres unmarked) [Compound 99] |  | 39 | 25 to 100 |  |
| CCn1c2c(c3ccc(OCCN4CCCN(c5ccc(C(=O)N[C@H]6C(C)(C)[C@H](Oc7ccc(C#N)c(Cl)c7)C6(C)C)nn5)CC4)cc31)C(=O)N(C1CCC(=O)NC1=O)C2=O (some centres unmarked) [Compound 53] |  | 77 |  |  |
| Cn1c2c(c3ccc(OC4CCN(CC5CCN(c6ccc(C(=O)N[C@H]7CC[C@H](Oc8ccc(C#N)c(Cl)c8)CC7)nn6)CC5)CC4)cc31)C(=O)N(C1CCC(=O)NC1=O)C2=O (some centres unmarked) [Compound 215] | 10 to 25 |  |  |  |

| SMILES | DC50 [1] [nM] | remaining activity at 0.1 µM [2] [%] | DC50 [3] [nM] | remaining activity at 0.1 µM [4] [%] |
| --- | --- | --- | --- | --- |
| Cn1c2c(c3ccc(OCCCOC4CC5(CCN(c6ccc(C(=O)N[C@H]7CC[C@H](N(C)c8ccc(C#N)c(Cl)c8)CC7)nn6)C5)C4)cc31)C(=O)N(C1CCC(=O)NC1=O)C2=O (some centres unmarked) [Compound 178] |  |  | 10 to 25 |  |
| CCn1c2c(c3ccc(OCC(=O)N4CC5(CCN(c6ccc(C(=O)N[C@H]7CC[C@H](N(C)c8ccc(C#N)c(Cl)c8)CC7)nn6)C5)C4)cc31)C(=O)N(C1CCC(=O)N(CO)C1=O)C2=O (some centres unmarked) [Compound 145] |  | 62 |  |  |
| CCn1c2c(c3ccc(OCCCN4CCC5(C4)CN(c4ccc(C(=O)N[C@H]6CC[C@H](Oc7ccc(C#N)c(Cl)c7)CC6)nn4)C5)cc31)C(=O)N(C1CCC(=O)NC1=O)C2=O (some centres unmarked) [Compound 160] |  | 17 | < 10 |  |
| Cn1c2c(c3ccc(OC4CCN(CC5CCN(c6ccc(C(=O)N[C@H]7C(C)(C)[C@H](Oc8ccc(C#N)c(Cl)c8)C7(C)C)cc6)CC5)CC4)cc31)C(=O)N(C1CCC(=O)NC1=O)C2=O (some centres unmarked) [Compound 219] | 25 to 100 |  |  |  |
| Cn1c2c(c3ccc(OCCN4CCN(c5ccc(C(=O)N[C@H]6C(C)(C)[C@H](Oc7ccc(C#N)c(Cl)c7)C6(C)C)cc5)CC4)cc31)C(=O)N(C1CCC(=O)NC1=O)C2=O (some centres unmarked) [Compound 1] | 10 to 25 |  |  | 47 |
| Cn1c2c(c3ccc(OCCN4CCC5(CC4)CCN(c4ccc(C(=O)N[C@H]6CC[C@H](Oc7ccc(C#N)c(Cl)c7)CC6)nn4)CC5)cc31)C(=O)N(C1CCC(=O)NC1=O)C2=O (some centres unmarked) [Compound 195] | 10 to 25 |  |  |  |
| Cn1c2c(c3ccc(OC4CCN(CC5CN(c6ccc(C(=O)N[C@H]7CC[C@H](Oc8ccc(C#N)c(Cl)c8)CC7)nn6)C5)CC4)cc31)C(=O)N(C1CCC(=O)NC1=O)C2=O (some centres unmarked) [Compound 217] | 10 to 25 |  |  |  |
| N#Cc1ccc(O[C@H]2CC[C@H](NC(=O)c3ccc(N4CC5(CCN(CCOc6ccc7c8c(n(CC(F)F)c7c6)C(=O)N(C6CCC(=O)NC6=O)C8=O)CC5)C4)nn3)CC2)cc1Cl (some centres unmarked) [Compound 103] |  | 52 |  |  |
| CCn1c2c(c3ccc(OCCC4CCN(c5ccc(C(=O)N[C@H]6CC[C@H](N(C)c7ccc(C#N)c(Cl)c7)CC6)nn5)CC4)cc31)C(=O)N(C1CCC(=O)NC1=O)C2=O (some centres unmarked) [Compound 140] |  | 32 | 25 to 100 |  |
| CCn1c2c(c3ccc(OCCOCC4CCN(c5ccc(C(=O)N[C@H]6CC[C@H](Oc7ccc(C#N)c(Cl)c7)CC6)nn5)CC4)cc31)C(=O)N(C1CCC(=O)NC1=O)C2=O (some centres unmarked) [Compound 138] |  | 39 | 25 to 100 |  |
| CCn1c2c(c3ccc(OCCCN4CCN(c5ncc(C(=O)N[C@H]6CC[C@H](Oc7ccc(C#N)c(Cl)c7)CC6)cn5)CC4)cc31)C(=O)N(C1CCC(=O)NC1=O)C2=O (some centres unmarked) [Compound 220] |  |  | 25 to 100 |  |
| CCn1c2c(c3ccc(OCCCN4CCN(c5ccc(N6C(=S)N(c7ccc(C#N)c(C(F)(F)F)c7)C(=O)C6(C)C)cc5)CC4)cc31)C(=O)N(C1CCC(=O)NC1=O)C2=O (centres unmarked) [Compound 117] |  | 56 |  |  |
| CCn1c2c(c3ccc(OC4CCN(CC5CCN(c6ccc(C(=O)N[C@H]7C(C)(C)[C@@H](Oc8ccc(C#N)c(Cl)c8)C7(C)C)nn6)CC5)CC4)cc31)C(=O)N(C1CCC(=O)NC1=O)C2=O (some centres unmarked) [Compound 213] |  |  | 10 to 25 |  |
| CC(C)n1c2c(c3cc(OCCN4CCN(c5ccc(C(=O)N[C@H]6C(C)(C)[C@H](Oc7ccc(C#N)c(Cl)c7)C6(C)C)cn5)CC4)ccc31)C(=O)N(C1CCC(=O)NC1=O)C2=O (some centres unmarked) [Compound 16] |  | 96 |  |  |
| CCn1c2c(c3ccc(OCCN4CCN(c5ccc(C(=O)N[C@H]6CC[C@H](N(C)c7ccc(C#N)c(Cl)c7)CC6)nn5)CC4)cc31)C(=O)N(C1CCC(=O)NC1=O)C2=O (some centres unmarked) [Compound 79] |  | 60 |  |  |
| CCn1c2c(c3ccc(OCCCCN4CCCN(c5ccc(C(=O)N[C@H]6CC[C@H](N(C)c7ccc(C#N)c(Cl)c7)CC6)nn5)CC4)cc31)C(=O)N(C1CCC(=O)NC1=O)C2=O (some centres unmarked) [Compound 112] |  | 32 | 10 to 25 |  |
| CCn1c2c(c3ccc(OCCCN4CCCN(c5ccc(C(=O)N[C@H]6CC[C@H](Oc7ccc(C#N)c(Cl)c7)CC6)nn5)CC4)cc31)C(=O)N(C1CCC(=O)NC1=O)C2=O (some centres unmarked) [Compound 46] |  | 20 | 10 to 25 |  |
| CC[C@H]1CN(CCCOc2ccc3c4c(n(CC)c3c2)C(=O)N(C2CCC(=O)NC2=O)C4=O)CCN1c1ccc(C(=O)N[C@H]2CC[C@H](Oc3ccc(C#N)c(Cl)c3)CC2)nn1 (some centres unmarked) [Compound 60] |  | 57 |  |  |
